Key:
Format in all cases: cell-based, Human
[1] = tested on: JAK/STAT signaling in NK-92 cells; assay: JAK/STAT signaling Western blot and IL-2 stimulation assay in NK-92
Method: (§1) Total cell lysate was prepared with modified RIPA buffer (1M Tris-HCl (pH 7.5), 5M NaCl, 0.25% sodium deoxycholate, 10% NP-40 and 10 mM sodium fluoride) supplemented with ethylenediaminetetraacetic acid (EDTA)-free protease inhibitor (Roche™) and 2 mM sodium orthovanadate (Sigma-Aldrich™). Protein levels were quantified by bicinchoninic acid (BCA) assay. Protein lysate was separated by 10% SDS-PAGE and Western analysis was performed using primary antibodies listed in the tables below followed with horseradish peroxidase (HRP, 1:10,000, Jackson ImmunoResearch™) conjugated secondary antibodies.
For cytokine stimulation assay, NK-92 cells were pre-treated with L598 (30 μM) or vehicle control for three days. Before IL-2 stimulation, NK-92 cells were washed once with serum depleted cell media (no IL-2) and were starved for six hours in presence of L598 or vehicle control. After starvation, NK-92 cells were stimulated with IL-2 across a gradient concentration ranging from 0 to 90 IU/mL for 15 mins at 37° C. After incubation, cells were directly lysed with 2× concentrated TNE buffer and then boiled in 1× Laemmli Buffer to prepare cell lysates. Two independent experiments were performed.

NK-92 cells [2] = assay: Lytic granule protein expression in NK-92 (flow cytometry, Western blot)
Method: as §1
NK-92 cells pre-treated with L598 (30 μM) or vehicle control were stimulated with K-562 tumor target cells [effector: target (E:T) at 1:1] or PMA/lonomycin (1 μg/mL each) or no-stimulation control with K-562 complete media, respectively. Anti-CD107a or LAMP-1 antibody (1:100, PE/Cy7 conjugated, clone H4A3, from BioLegend®) was added to cells at the start of degranulation assay. Golgi stop (containing Monensin, 1 μM) and Golgi plug (containing Brefeldin A, 4 μg/mL) were added to cells one hour after degranulation assay started and were kept until the end of the 6-hour-degranulation assay. Intracellular staining of GrB (1:40, PE conjugated, clone QA18A28, from BioLegend®) and PRF (1:40, FITC conjugated, clone B-D48, from BioLegend®) were performed with the Fixation/Permeabilization Solution Kit (BD® Biosciences) according to the manufacture's protocol. Cells were stained with fixable viability dye (1:2000) for 20 mins on ice and in dark, and blocked with FcBlock (1:20, diluted in 1× Perm/Wash buffer, Human truStain FcX from BioLegend®) for 5 mins at room temperature and in dark before intracellular staining. Cell gating and percentage of population quantification was based on no-stimulation control. For kinetics of degranulation assay, measurements were taken over three hours at 15 mins, 30 mins, 60 mins, 120 mins and 180 mins, with L598 (30 μM, three days) treated group and vehicle control group under the condition of tumor target cell K-562 stimulation (E: T at 1:1) or no stimulation. Intracellular cytolytic granule contents GrA, GrB and PRF were measured as mentioned previously.

[3] = tested on: NK-92 cells against K-562 cells; assay: NK-92 cytolytic assay against K-562 tumor target cells (flow cytometry)
Method: Human NK cell line NK-92 was purchased from American Type Culture Collection (ATCC) and cultured in α-MEM Essential Medium (no ribonucleoside and deoxyribonucleoside) supplemented with 0.2 mM Myo-inositol, 0.02 mM Folic Acid, 0.1 mM β-mercaptoethanol, 1% of Non-essential Amino Acids, 1×L-Glutamax, 1% of Penicillin/Streptomycin, 12.5% of heat-inactivated Horse, and 12.5% of heat-inactivated Characterized Fetal Bovine Serum or FBS. The media was supplemented freshly with 200 IU/mL of IL-2 upon cell thawing for one passage and 100 IU/mL of IL-2 for cell expansion. Human tumor cell lines K-562 and Reh were purchased from ATCC and were cultured in RPM11640 Medium supplemented with 1% of Penicillin/Streptomycin and 10% of heat inactivated FBS. HEK293T/17 cells and HCT116 cells were cultured in Dulbecco's Modified Eagle's Medium (DMEM) High Glucose Medium supplemented with 1% of Penicillin/Streptomycin and 10% of FBS. All cell lines were maintained in 5% CO2, 37° C. incubator, except that NK-92 were maintained in 6.5% CO2 incubator at 37° C. All cell lines were maintained below 30 passages and tested regularly for mycoplasma infection using PCR.
NK-92 anti-tumor cytolysis function was assessed by flow cytometry-based analysis. Tumor target cells K-562 and Reh were labelled with cell tracker CFSE ([…]) or CMRA (5 μM) according to manufacturer's protocol at a maximum of one day before cytolysis experiment. On the experiment day, labelled tumor target cells were washed once with PBS and resuspend to desired cell concentration in complete cell media. NK-92 cells were washed and resuspended in complete media without cytokines to desired cell concentration. NK-92 cells and tumor target cells were plated at various effector: target (E:T) ratios with basal cell numbers at 50,000 cells per well in round-bottom 96-well plate and were co-cultured for 3 hours in 5% CO2, 37° C. incubator. After co-culture, cells were washed once with ice-cold PBS and stained with fixable viability dyes: Aqua (Invitrogen™) or UV Blue (Invitrogen™) or eFluor 780 (eBioscience Invitrogen™) at 1:2000 in dark for 20 mins at 4° C. Stained cells were washed twice with ice cold PBS and were fixed with 1% Paraformaldehyde (PFA) for 1 hour or 2% PFA for 30 mins in dark at 4° C. Flow cytometry sample acquisition was performed with BDO LSRFortessa™ with a UV laser at Flow Cytometry Core Facility, McGill University, and data was analyzed with FlowJo™ 10.7.1 and summarized with Prism™ 9 (GraphPad™). Calculation for % of specific cytolysis was followed by the equation: […]

NK-92 cells [4] = assay: IFN-γ ELISA of NK-92 supernatants; settings: 30 μM three days, with or without K-562 (E:T 6:1), vs control
Method: Concentration of secreted IFN-γ in supernatants of NK-92 co-cultured with K-562 cells (E:T at 6:1) or no-stimulation control (K-562 cell media) for four hours was analyzed with Human IFN-γ ELISA Kit (R&D, DIF50) according to the manufacture's protocol. Results were normalized against IFN-γ secreted by K-562 alone treated with NK-92 cell media (no cytokine) for four hours.

NK-92 cells [5] = assay: NK-92 viability and proliferation under inhibitor treatment; settings: various IL-2 concentration, vs vehicle control

In the case of “7-bromo-6-phosphono(difluoro-methyl)-3-napthalenonitrile [L598]”, the “sensitivity to low dosage short-term IL-2 stimulation (phospho-STAT1, 3, 4, 5)” value ([1]; 30 μM three days, starved six hours, IL-2 below 100 IU/mL, 15 mins) is reported as “more sensitive”, the “minimum IL-2 at which increased STAT5 phosphorylation is detectable” value ([1]; IL-2 stimulation 15 mins after starvation) is reported as 30 IU/mL and the “total protein expression of STAT members” value ([1]; IL-2 stimulation assay) is reported as “might upregulate”. The “phosphorylation of STAT1, STAT3 and STAT4 under TGF-β1 and IL-2” value ([1]; TGF-β1 and IL-2 stimulation condition) was “retained enhanced phosphorylation”, the “basal phosphorylation of STAT1, STAT3 and STAT4” value ([1]; after six-hours serum and cytokine starvation in presence of inhibitor) was “increased” and the “phosphorylation of STAT2 and STAT6” value ([1]; regular cell culture, inhibitor titration, three days) was “relatively stable”. For the same substance, the “phosphorylation of STAT1, STAT3, STAT4 and STAT5” value ([1]; regular cell culture, inhibitor titration, three days, dosage dependent) was “increased phosphorylation”, the “thresholds of maximal expression of perforin and granzyme B” value (NK-92 cells [2]; IL-2 titration, 30 μM) was “upregulated” and the “fold increase of perforin and granzyme B MFI over vehicle control” value (NK-92 cells [2]; day three, IL-2 1250 IU/mL, 30 μM) was “approximately two-fold”. The “protein expression of perforin and granzyme B” value (NK-92 cells [2]; gradual increasing concentration, three days) was “upregulated in a dosage dependent manner”, the “maximal expression of lytic granules after withdrawal, vs control” value (NK-92 cells [2]; inhibitor withdrawn three consecutive days) was “similar” and the “fold change of perforin and granzyme B after withdrawal” value (NK-92 cells [2]; inhibitor withdrawn three consecutive days, IL-2 titration) was “around one-fold”. The “fold change of intracellular perforin and granzyme over control” value (NK-92 cells [2]; one-day treatment, IL-2 titration, 30 μM) was “started improving”, the “granzyme A protein expression” value (NK-92 cells [2]; with or without inhibitor treatment) was “relatively stable” and the “granzyme B expression, treatment vs control group, without IL-2” value (NK-92 cells [2]; without IL-2 stimulation) was “almost no difference”. For the same substance, the “NK-92 cytolysis against K-562 in presence of TGF-β1, vs vehicle control” value ([3]; 10 μM with TGF-β 10 ng/mL, IL-2 media, three days) was “continued exhibiting enhanced anti-tumor cytolysis”, the “cytolysis against K-562 after re-treatment” value ([3]; additional two-days treatment at same concentration) was “once more improved the anti-tumor cytolysis function to a similar level of the initial treatment” and the “tumor cytolysis by NK-92 against K-562 with inhibitor titration” value ([3]; dosage increased up to 90 μM, three days, various E:T ratios) was “gradual increasing of tumor cytolysis”. For the same substance, the “enhanced cytolysis against K-562 after inhibitor withdrawal” value ([3]; withdrawn for three days after initial 30 μM treatment) was “reversible”, the IFN-γ protein secretion (NK-92 cells [4]) was “significantly more” and the NK-92 proliferation (NK-92 cells [5]) was “proliferate slightly faster”.
